In patent US10183037B2, “Nucleoside phosphoramidate prodrugs” (Gilead Pharmasset LLC, priority 2007, dated 2019) one finds EC90 and log reduction data, which are given here for 19 molecules.

The assay deals with HCV replicon RNA-containing Huh7 cells (clone A cells). The assay is described as follows: HCV replicon assay (replicon RNA by RT-PCR, ΔCt HCV, EC90). The format is cell-based. As to conditions: Hepatitis C virus, Huh-7, 96 h; for log reduction at 50 µM: read-out: Log10 Reduction at 50 μM. As to the method:
HCV replicon assay. HCV replicon RNA-containing Huh7 cells (clone A cells; Apath, LLC, St. Louis, Mo.) were kept at exponential growth in Dulbecco's modified Eagle's medium (high glucose) containing 10% fetal bovine serum, 4 mM L-glutamine and 1 mM sodium pyruvate, 1×nonessential amino acids, and G418 (1,000 μg/ml). Antiviral assays were performed in the same medium without G418. Cells were seeded in a 96-well plate at 1,500 cells per well, and test compounds were added immediately after seeding. Incubation time 4 days. At the end of the incubation step, total cellular RNA was isolated (RNeasy 96 kit; Qiagen). Replicon RNA and an internal control (TaqMan rRNA control reagents; Applied Biosystems) were amplified in a single-step multiplex RT-PCR protocol as recommended by the manufacturer. The HCV primers and probe were designed with Primer Express software (Applied Biosystems) and covered highly conserved 5′-untranslated region (UTR) sequences (sense, 5′-AGCCATGGCGTTAGTA(T)GAGTGT-3′ (SEQ ID NO: 1), and antisense, 5′-TTCCGCAGACCACTATGG-3′ (SEQ ID NO: 2); probe, 5′-FAM-[…]-TAMRA-3′ (SEQ ID NO: 3)).
To express the antiviral effectiveness of a compound, the threshold RT-PCR cycle of the test compound was subtracted from the average threshold RT-PCR cycle of the no-drug control (ΔCtHCV). A ΔCt of 3.3 equals a 1-log 10 reduction (equal to the 90% effective concentration [EC90]) in replicon RNA levels. The cytotoxicity of the test compound could also be expressed by calculating the ΔCtrRNA values. The ΔΔCt specificity parameter could then be introduced (ΔCtHCV−ΔCtrRNA), in which the levels of HCV RNA are normalized for the rRNA levels and calibrated against the no-drug control.
(In antiviral work, replicon cells carry a viral genome segment that copies itself.)

For orientation: EC90 means the concentration at which the effect reaches the 90% level. Low readings indicate greater potency, high ones weaker potency. In the case of `CCCCOC(=O)[C@H](C)NP(=O)(OC[C@H]1O[C@@H](n2ccc(=O)[nH]c2=O)[C@](C)(F)[C@@H]1O)Oc1ccccc1Cl` (stereo partly drawn) [compound 53], the concentration for an effect of 90% (EC90) was below 300 nM and the log reduction at 50 µM came to 1.33. As for `CC(C)OC(=O)[C@H](C)NP(=O)(OC[C@H]1O[C@@H](n2ccc(=O)[nH]c2=O)[C@](C)(F)[C@@H]1O)Oc1ccccc1Cl` (stereo partly drawn) [compound 36], the concentration for an effect of 90% (EC90) came to 21900 nM and the log reduction at 50 µM stood at 1.64. With `COC(=O)[C@H](C)NP(=O)(OC[C@H]1O[C@@H](N2C=NC3C(N4CCC4)=NC(N)=NC32)[C@](C)(F)[C@@H]1O)Oc1ccccc1` (stereo partly drawn) [compound 70], the concentration for an effect of 90% (EC90) is below 300 nM and the log reduction at 50 µM is 2.25. As for `C[C@H](NP(=O)(OC[C@H]1O[C@@H](n2ccc(=O)[nH]c2=O)[C@](C)(F)[C@@H]1O)Oc1ccc(F)cc1)C(=O)OC1CCCCC1` (stereo partly drawn) [compound 55], the EC90 was below 300 nM and the log reduction at 50 µM worked out at 2.38.

For `COC(=O)[C@H](C)NP(=O)(OC[C@H]1O[C@@H](n2ccc(N)nc2=O)[C@](C)(F)[C@@H]1O)Oc1ccccc1` (stereo partly drawn) [Example 10, 2′-Deoxy-2′-fluoro-2′-C-methylcytidine 5′-(phenylmethoxy-alanyl phosphate)], the 90% effect level (EC90) was put at 19200 nM and the log reduction at 50 µM came to 1.25. `COC(=O)[C@@H](NP(=O)(OC[C@H]1O[C@@H](n2ccc(=O)[nH]c2=O)[C@](C)(F)[C@@H]1O)Oc1ccccc1)C(C)C` (stereo partly drawn) [Example 6, 2′-Deoxy-2′-fluoro-2′-C-methyluridine 5′-(phenylmethoxy-valyl phosphate)]: the log reduction at 50 µM was found to be 0.45.

For `COC(=O)[C@H](C)NP(=O)(OC[C@H]1O[C@@H](n2ccc(=O)[nH]c2=O)[C@](C)(F)[C@@H]1O)Oc1ccccc1` (stereo partly drawn) [Example 5, 2′-Deoxy-2′-fluoro-2′-C-methyluridine 5′-(phenylmethoxy-alanyl phosphate)], the EC90 worked out at 3000 nM and the log reduction at 50 µM was found to be 1.21. Take `C[C@H](NP(=O)(OC[C@H]1O[C@@H](n2ccc(=O)[nH]c2=O)[C@](C)(F)[C@@H]1O)Oc1ccccc1)C(=O)OC1CCCCC1` (stereo partly drawn) [compound 49]: it took 126 nM to reach the 90% level (EC90) and the log reduction at 50 µM was 2.69. `CCOC(=O)[C@H](C)NP(=O)(OC[C@H]1O[C@@H](n2ccc(=O)[nH]c2=O)[C@](C)(F)[C@@H]1O)Oc1ccc(F)cc1` (stereo partly drawn) [compound 27]: it took 660 nM to reach the 90% level (EC90) and the log reduction at 50 µM turned out to be 2.25. `CC(C)OC(=O)[C@H](C)NP(=O)(OC[C@H]1O[C@@H](n2ccc(=O)[nH]c2=O)[C@](C)(F)[C@@H]1O)Oc1ccc(Br)cc1` (stereo partly drawn) [compound 54]: the 90% effect level (EC90) was put at 570 nM and the log reduction at 50 µM was 1.55. On to `COC(=O)[C@@H](NP(=O)(OC[C@H]1O[C@@H](n2ccc(N)nc2=O)[C@](C)(F)[C@@H]1O)Oc1ccccc1)C(C)C` (stereo partly drawn) [Example 12, 2′-deoxy-2′-fluoro-2′-C-methylcytidine 5′-(phenylmethoxy-valyl phosphate)], for which the log reduction at 50 µM is -0.31. The same measure, in the same setting: next, `COC(=O)[C@@H](NP(=O)(OC[C@H]1O[C@@H](n2ccc(=O)[nH]c2=O)[C@](C)(F)[C@@H]1O)Oc1ccc(Br)cc1)C(C)C` (stereo partly drawn) [Example 7, 2′-Deoxy-2′-fluoro-2′-C-methyluridine 5′-(4-bromophenylmethoxy-valyl phosphate)]: -0.31. Regarding `COC(=O)CNP(=O)(OC[C@H]1O[C@@H](n2ccc(=O)[nH]c2=O)[C@](C)(F)[C@@H]1O)Oc1ccccc1` (stereo partly drawn) [compound 15], the 90% effect level (EC90) was put at 860 nM. Consider `CC(C)OC(=O)[C@H](C)NP(=O)(OC[C@H]1O[C@@H](n2ccc(=O)[nH]c2=O)[C@](C)(F)[C@@H]1O)Oc1ccc(F)cc1` (stereo partly drawn) [compound 28], for which the concentration for an effect of 90% (EC90) was found to be 750 nM and the log reduction at 50 µM worked out at 2.16. Take `COC(=O)[C@H](C)NP(=O)(OC[C@H]1O[C@@H](N2C=NC3C(NC4CCCC4)=NC(N)=NC32)[C@](C)(F)[C@@H]1O)Oc1ccccc1` (stereo partly drawn) [compound 69]: the EC90 was below 300 nM and the log reduction at 50 µM was found to be 2.25. `CC(C)OC(=O)[C@H](C)NP(=O)(OC[C@H]1O[C@@H](n2ccc(=O)[nH]c2=O)[C@](C)(F)[C@@H]1O)Oc1ccccc1` (stereo partly drawn) [compound 25]: the 90% effect concentration (EC90) came to 390 nM and the log reduction at 50 µM was found to be 2.22. As for `COC(=O)[C@@H](NP(=O)(OC[C@H]1O[C@@H](n2ccc(N)nc2=O)[C@](C)(F)[C@@H]1O)Oc1ccc(Br)cc1)C(C)C` (stereo partly drawn) [Example 11, 2′-Deoxy-2′-fluoro-2′-C-methylcytidine 5′-(4-bromophenylmethoxy-valyl phosphate)], the log reduction at 50 µM is 0.55. With `CC(C)OC(=O)[C@H](C)NP(=O)(OC[C@H]1O[C@@H](n2ccc(=O)[nH]c2=O)[C@](C)(F)[C@@H]1O)Oc1ccc(Cl)cc1` (stereo partly drawn) [compound 39], the concentration for an effect of 90% (EC90) was determined as 470 nM and the log reduction at 50 µM came out at 1.78.

For `COC(=O)[C@H](C)NP(=O)(OC[C@H]1O[C@@H](n2ccc(=O)[nH]c2=O)[C@](C)(F)[C@@H]1O)Oc1ccc(Br)cc1` (stereo partly drawn) [Example 8, 2′-Deoxy-2′-fluoro-2′-C-methyluridine 5′-(4-bromophenylmethoxy-alanyl phosphate)], the EC90 came out at 2110 nM and the log reduction at 50 µM was 1.48.
